Earlier results in patent US7319013B2, “Serine hydroxymethyltransferase as a target for herbicides” (BASF Aktiengesellschaft, priority 2002, dated 2008).

Legend:
[1] = test system: SHMT from Euglena gracilis; details: millimolar concentrations
SHMT from CHO cells [2] = test system: SHMT from CHO cells
SHMT from CHO cells [3] = details: by means of photo-linkage
ovine SHMT = target: T1, ovine SHMT (Ovis aries, UniProt P35623); details: micromolar concentrations
T1 sequence (P35623 2-484 limits assumed): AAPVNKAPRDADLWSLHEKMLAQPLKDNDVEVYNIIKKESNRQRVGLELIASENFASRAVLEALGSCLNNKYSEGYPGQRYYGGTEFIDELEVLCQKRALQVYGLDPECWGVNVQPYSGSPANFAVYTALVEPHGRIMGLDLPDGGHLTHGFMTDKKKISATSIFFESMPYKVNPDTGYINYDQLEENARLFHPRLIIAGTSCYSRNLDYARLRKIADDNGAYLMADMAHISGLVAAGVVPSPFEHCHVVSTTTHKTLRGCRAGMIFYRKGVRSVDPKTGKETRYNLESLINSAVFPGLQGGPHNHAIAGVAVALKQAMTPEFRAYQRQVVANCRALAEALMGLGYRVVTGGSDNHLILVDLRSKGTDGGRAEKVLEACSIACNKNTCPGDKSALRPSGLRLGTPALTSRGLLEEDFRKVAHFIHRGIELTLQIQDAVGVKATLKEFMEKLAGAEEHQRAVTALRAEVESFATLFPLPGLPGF

SMILES	inhibition of SHMT [1]	further results
N[C@@H](CS)C(=O)O [cystein]	can be inhibited	
N[C@@H](CO)C(=O)O [serine]	can be inhibited	
NCC(=O)O [glycin]	can be inhibited	
NC(Cn1ccc(=O)c(O)c1)C(=O)O (stereo not drawn) [mimosine]		inhibition of SHMT (SHMT from CHO cells [2]): does not inhibit it; binding to SHMT (SHMT from CHO cells [3]): can be bound
NOC[C@@H](N)C(=O)O [O-amino-D-serine]		inhibitory effect on SHMT (ovine SHMT): have an inhibitory effect
